The results in this text go back to US11524966B1 (Valo Early Discovery, Inc., priority 2017, dated 2022).

Usually IC50 stands for the point on the concentration scale where inhibition reaches its midpoint.

The assay has as its target T1, USP28 (His-tagged USP28-FL-mammalian) (Homo sapiens, UniProt Q96RU2).
T1 construct: Expression of USP28 (1-1077)-TEV-6*His (pTT5 vector); made in house; host or cells: Expi293f cells (pTT5 vector)
T1 sequence (Q96RU2 1-1077): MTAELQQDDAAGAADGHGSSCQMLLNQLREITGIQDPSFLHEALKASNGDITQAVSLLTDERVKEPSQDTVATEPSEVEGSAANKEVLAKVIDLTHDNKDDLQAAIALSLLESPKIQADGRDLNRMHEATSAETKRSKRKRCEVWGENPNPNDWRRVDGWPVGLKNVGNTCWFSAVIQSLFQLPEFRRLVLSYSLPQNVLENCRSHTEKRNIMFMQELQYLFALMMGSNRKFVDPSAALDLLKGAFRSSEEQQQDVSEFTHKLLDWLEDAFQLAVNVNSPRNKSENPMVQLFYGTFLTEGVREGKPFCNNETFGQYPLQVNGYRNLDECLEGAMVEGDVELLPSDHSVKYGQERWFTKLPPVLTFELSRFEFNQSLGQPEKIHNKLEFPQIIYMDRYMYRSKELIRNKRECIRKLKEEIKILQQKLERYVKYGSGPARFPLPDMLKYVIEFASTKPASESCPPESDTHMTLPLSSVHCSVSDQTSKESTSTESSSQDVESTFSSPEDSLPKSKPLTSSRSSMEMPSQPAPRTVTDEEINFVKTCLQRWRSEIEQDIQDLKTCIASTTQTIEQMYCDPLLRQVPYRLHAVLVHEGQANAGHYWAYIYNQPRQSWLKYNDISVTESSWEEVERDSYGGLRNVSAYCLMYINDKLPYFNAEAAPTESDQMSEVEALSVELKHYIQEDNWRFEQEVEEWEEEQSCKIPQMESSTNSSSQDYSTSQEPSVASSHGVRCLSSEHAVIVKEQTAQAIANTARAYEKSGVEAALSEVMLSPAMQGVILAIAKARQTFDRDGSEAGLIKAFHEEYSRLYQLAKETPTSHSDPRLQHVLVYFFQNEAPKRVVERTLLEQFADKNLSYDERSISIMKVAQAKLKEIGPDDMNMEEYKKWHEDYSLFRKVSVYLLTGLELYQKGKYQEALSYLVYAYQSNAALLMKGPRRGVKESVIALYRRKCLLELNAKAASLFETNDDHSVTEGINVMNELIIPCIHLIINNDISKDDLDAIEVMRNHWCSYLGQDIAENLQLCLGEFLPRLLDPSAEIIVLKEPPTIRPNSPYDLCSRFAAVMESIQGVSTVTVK
The assay can be described thus: Ubiquitin-Rhodamine 110 Assay for USP28 Activity, Example A-1(a). The assay is classed as biochemical. The following applies: Ubiquitin-Rhodamine 110 assay, Example A-1(a); read-out: USP28 A-1(a) IC50 range. A digest of the protocol:
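Full-length His-tagged USP28 (1-1077, Expi293F-expressed; […]) was preincubated 30 min with compound (25 μM–1.3 nM, 10-point 3-fold) in 20 mM Tris-HCl pH 8.0, 3 mM BME, 0.03% BGG, 0.01% Triton X-100. Ub-Rh110 (25 nM) was then added for 45 min at room temperature, stopped with citric acid, and read by fluorescence (485/535 nm).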

For the compound `Cc1ccc2c(N)c(C(=O)N[C@H]3COc4cc(N5CC[C@H]6CCNC[C@H]65)ccc4C3)sc2n1` [Example 224, N-[(3R)-7-[(3aR,7aS)-octahydro-1H-pyrrolo[2,3-c]pyridin-1-yl]-3,4-dihydro-2H-1-benzopyran-3-yl]-3-amino-6-methylthieno[2,3-b]pyridine-2-carboxamide], the IC50 fell in the range of 1 to 50 nM.

With `Cc1ccc2c(N)c(C(=O)N[C@H]3COc4cc(N5CC[C@@H]6CCNC[C@@H]65)ccc4C3)sc2n1` [Example 225], the IC50 fell in the range of 1 to 50 nM.

Consider `Cc1cc(C)c2c(N)c(C(=O)N[C@H]3COc4cc(N5CC[C@H]6CNC[C@H]65)ccc4C3)sc2n1` [Example 226, N-[(3R)-7-[(3aS,6aS)-octahydropyrrolo[2,3-c]pyrrol-1-yl]-3,4-dihydro-2H-1-benzopyran-3-yl]-3-amino-4,6-dimethylthieno[2,3-b]pyridine-2-carboxamide], for which the IC50 lay in the range of 1 to 50 nM.

In the case of `Cc1cc(C)c2c(N)c(C(=O)N[C@H]3COc4cc(N5CC[C@@H]6CNC[C@@H]65)ccc4C3)sc2n1` [Example 227, N-[(3R)-7-[(3aR,6aR)-octahydropyrrolo[2,3-c]pyrrol-1-yl]-3,4-dihydro-2H-1-benzopyran-3-yl]-3-amino-4,6-dimethylthieno[2,3-b]pyridine-2-carboxamide], the half-maximal inhibitory concentration (IC50) was in the range of 1 to 50 nM.

Consider `N#Cc1c(N2CC3CCC(C2)N3)cc(F)c2c1OC[C@H](NC(=O)c1cnc3c(c1)[C@@H]1C[C@@H]1CN3)C2` [Example 228, (6aS,7aR)-N-[(3R)-8-cyano-7-{3,8-diazabicyclo[3.2.1]octan-3-yl}-5-fluoro-3,4-dihydro-2H-1-benzopyran-3-yl]-5H,6H,6aH,7H,7aH-cyclopropa[c]1,8-naphthyridine-2-carboxamide], for which the half-inhibitory concentration (IC50) was in the range of 200 to 2000 nM.

Regarding `N#Cc1c(N2CC3CCC(C2)N3)cc(F)c2c1OC[C@H](NC(=O)c1cnc3c(c1)[C@H]1C[C@H]1CN3)C2` [Example 229, (6aR,7aS)-N-[(3R)-8-cyano-7-{3,8-diazabicyclo[3.2.1]octan-3-yl}-5-fluoro-3,4-dihydro-2H-1-benzopyran-3-yl]-5H,6H,6aH,7H,7aH-cyclopropa[c]1,8-naphthyridine-2-carboxamide], the IC50 is 200 to 2000 nM.

With `Cc1cc(C)c2c(N)c(C(=O)N[C@H]3COc4c(C#N)c(N5CC6CCC(C5)N6)cc(F)c4C3)sc2n1` [Example 230, 3-amino-N-[(3R)-8-cyano-7-{3,8-diazabicyclo[3.2.1]octan-3-yl}-5-fluoro-3,4-dihydro-2H-1-benzopyran-3-yl]-4,6-dimethylthieno[2,3-b]pyridine-2-carboxamide], the IC50 lay within 1 to 50 nM.

For `Cc1ccc2c(N)c(C(=O)N[C@H]3COc4cc(N5CC[C@H]6CC[C@@H](N)C[C@H]65)ccc4C3)sc2n1` [Example 231, N-[(3R)-7-[(3aR,6R,7aR)-6-amino-octahydro-1H-indol-1-yl]-3,4-dihydro-2H-1-benzopyran-3-yl]-3-amino-6-methylthieno[2,3-b]pyridine-2-carboxamide], the IC50 is 1 to 50 nM.

For the compound `Cc1ccc2c(N)c(C(=O)N[C@H]3COc4cc(N5CC[C@H]6CC[C@H](N)C[C@H]65)ccc4C3)sc2n1` [Example 232, N-[(3R)-7-[(3aR,6S,7aR)-6-amino-octahydro-1H-indol-1-yl]-3,4-dihydro-2H-1-benzopyran-3-yl]-3-amino-6-methylthieno[2,3-b]pyridine-2-carboxamide], the IC50 lay in the range of 1 to 50 nM.

On to `Cc1ccc2c(N)c(C(=O)N[C@H]3COc4cc(N5CC[C@@H]6CC[C@@H](N)C[C@@H]65)ccc4C3)sc2n1` [Example 233, N-[(3R)-7-[(3aS,6R,7aS)-6-amino-octahydro-1H-indol-1-yl]-3,4-dihydro-2H-1-benzopyran-3-yl]-3-amino-6-methylthieno[2,3-b]pyridine-2-carboxamide], for which the IC50 lay in the range of 1 to 50 nM.

For the compound `Cc1ccc2c(N)c(C(=O)N[C@H]3COc4cc(N5CC[C@@H]6CC[C@H](N)C[C@@H]65)ccc4C3)sc2n1` [Example 234, N-[(3R)-7-[(3aS,6S,7aS)-6-amino-octahydro-1H-indol-1-yl]-3,4-dihydro-2H-1-benzopyran-3-yl]-3-amino-6-methylthieno[2,3-b]pyridine-2-carboxamide], the IC50 fell in the range of 1 to 50 nM.

Turning to `Cc1ccc2c(N)c(C(=O)N[C@H]3COc4cc(N5CC[C@H]6CNCC[C@H]65)ccc4C3)sc2n1` [Example 235, N-[(3R)-7-[(3aS,7aR)-octahydro-1H-pyrrolo[3,2-c]pyridin-1-yl]-3,4-dihydro-2H-1-benzopyran-3-yl]-3-amino-6-methylthieno[2,3-b]pyridine-2-carboxamide], the IC50 was 1 to 50 nM.

As for `Cc1ccc2c(N)c(C(=O)N[C@H]3COc4cc(N5CC[C@@H]6CNCC[C@@H]65)ccc4C3)sc2n1` [Example 236, N-[(3R)-7-[(3aR,7aS)-octahydro-1H-pyrrolo[3,2-c]pyridin-1-yl]-3,4-dihydro-2H-1-benzopyran-3-yl]-3-amino-6-methylthieno[2,3-b]pyridine-2-carboxamide], the IC50 was 1 to 50 nM.

As for `Cc1ccc2c(N)c(C(=O)N[C@H]3COc4cc(N5C[C@@H]6NCCC(F)(F)[C@@H]6C5)ccc4C3)sc2n1` [Example 237, N-[(3R)-7-[(4aR,7aR)-4,4-difluoro-octahydro-1H-pyrrolo[3,4-b]pyridin-6-yl]-3,4-dihydro-2H-1-benzopyran-3-yl]-3-amino-6-methylthieno[2,3-b]pyridine-2-carboxamide], the IC50 lay within 1 to 50 nM.

In the case of `Cc1ccc2c(N)c(C(=O)N[C@H]3COc4cc(N5C[C@H]6NCCC(F)(F)[C@H]6C5)ccc4C3)sc2n1` [Example 238, N-[(3R)-7-[(4aS,7aS)-4,4-difluoro-octahydro-1H-pyrrolo[3,4-b]pyridin-6-yl]-3,4-dihydro-2H-1-benzopyran-3-yl]-3-amino-6-methylthieno[2,3-b]pyridine-2-carboxamide], the IC50 fell in the range of 1 to 50 nM.

With `CO[C@H]1CN(c2ccc3c(n2)CC[C@H](NC(=O)c2sc4nc(C)ccc4c2N)C3)C[C@]1(C)N` [Example 239, 3-amino-N-[(6S)-2-[(3S,4S)-3-amino-4-methoxy-3-methylpyrrolidin-1-yl]-5,6,7,8-tetrahydroquinolin-6-yl]-6-methylthieno[2,3-b]pyridine-2-carboxamide], the IC50 was in the range of 200 to 2000 nM.

Consider `CO[C@@H]1CN(c2ccc3c(n2)CC[C@H](NC(=O)c2sc4nc(C)ccc4c2N)C3)C[C@@]1(C)N` [Example 240, 3-amino-N-[(6S)-2-[(3R,4R)-3-amino-4-methoxy-3-methylpyrrolidin-1-yl]-5,6,7,8-tetrahydroquinolin-6-yl]-6-methylthieno[2,3-b]pyridine-2-carboxamide], for which the IC50 lay in the range of 200 to 2000 nM.

On to `Cc1cc(C)c2c(N)c(C(=O)N[C@H]3COc4cc(N5CC6CCC(C5)N6)c(C#N)c(F)c4C3)sc2n1` [Example 241, 3-amino-N-[(3R)-6-cyano-7-{3,8-diazabicyclo[3.2.1]octan-3-yl}-5-fluoro-3,4-dihydro-2H-1-benzopyran-3-yl]-4,6-dimethylthieno[2,3-b]pyridine-2-carboxamide], for which the IC50 was 1 to 50 nM.

As for `Cc1ccc2c(N)c(C(=O)N[C@H]3COc4cc(N5CCC[C@@H]6CNC[C@@H]65)ccc4C3)sc2n1` [Example 242, N-[(3R)-7-[(4aR,7aR)-octahydro-1H-pyrrolo[3,4-b]pyridin-1-yl]-3 ,4-dihydro-2H-1-benzopyran-3-yl]-3-amino-6-methylthieno[2,3-b]pyridine-2-carboxamide], the IC50 fell in the range of 1 to 50 nM.

For the compound `Cc1ccc2c(N)c(C(=O)N[C@H]3COc4cc(N5CCC[C@H]6CNC[C@H]65)ccc4C3)sc2n1` [Example 243, N-[(3R)-7-[(4aS,7aS)-octahydro-1H-pyrrolo[3,4-b]pyridin-1-yl]-3,4-dihydro-2H-1-benzopyran-3-yl]-3-amino-6-methylthieno[2,3-b]pyridine-2-carboxamide], the IC50 was in the range of 1 to 50 nM.

With `Cc1ccc2c(N)c(C(=O)N[C@H]3COc4cc(N5C[C@H](N)CC[C@@H]5C(F)(F)F)ccc4C3)sc2n1` [Example 244, 3-amino-N-[(3R)-7-[(2R,5R)-5-amino-2-(trifluoromethyl)piperidin-1-yl]-3,4-dihydro-2H-1-benzopyran-3-yl]-6-methylthieno[2,3-b]pyridine-2-carboxamide], the IC50 was in the range of 1 to 50 nM.
